Where two headings read alike, the source gives them in different places.
Tests used:
[1] = type: in vivo, human; conditions: for Cmax geometric least-squares mean ratio (90%CI) (test/reference): with vs without ketoconazole
[2] = type: in vivo, human; conditions: for AUC0-264 geometric least-squares mean ratio (90%CI) (test/reference) / Cmax geometric least-squares mean ratio (90%CI) (test/reference): with vs without clarithromycin
[3] = type: in vivo, human; conditions: for Reduction of Cmax in the presence of rifampin: ixazomib 4 mg oral, rifampin 600 mg once daily; for AUC0-last geometric least-squares mean ratio (90%CI) (test/reference) / Cmax geometric least-squares mean ratio (90%CI) (test/reference): with vs without rifampin
[4] = Treatment-emergent adverse events and on-study deaths in the DDI study arms; type: in vivo, human
Period effect analysis = type: in vivo, human; conditions: pooled ketoconazole DDI, food effect and relative bioavailability arms
CYP3A4 = conditions: higher than clinical concentrations; cited from earlier work
CYP1A2 = conditions: higher than clinical concentrations; cited from earlier work
CYP2B6 = conditions: higher than clinical concentrations; cited from earlier work
CYP2C8 = conditions: higher than clinical concentrations; cited from earlier work
CYP2D6 = conditions: higher than clinical concentrations; cited from earlier work
CYP2C19 = conditions: higher than clinical concentrations; cited from earlier work
CYP2C9 = conditions: higher than clinical concentrations; cited from earlier work
[5] = humans; cited from earlier work
[6] = clinically relevant exposures; cited from earlier work
P‐glycoprotein (P‐gp) = conditions: in vitro data; cited from earlier work
intestinal P‐gp = conditions: multiple doses of rifampin, duodenal biopsies, Western blotting; cited from earlier work
[7] = cited from earlier work
[8] = test condition: ixazomib 4 mg oral day 8 with rifampin 600 mg once daily, N = 16
[9] = Clarithromycin arm (N = 21), cycle 1 only
[10] = Rifampin arm (N = 38), test and reference groups

CC(C)C[C@H](NC(=O)CNC(=O)c1cc(Cl)ccc1Cl)B(O)O [ixazomib]
Geometric mean AUC0-264, h·ng/mL (%CV), not corrected for the period effect ([1]; test condition: ixazomib 2.5 mg oral, period 2 with ketoconazole): 1150 (46) h·ng/mL
Cmax geometric least-squares mean ratio (90%CI) (test/reference) [1]: 1.01
Cmax geometric least-squares mean ratio (90%CI) (test/reference) ([1]; listed as Ixazomib): 1.01 (0.78‐1.30)
Increase in AUC with the strong CYP3A inhibitors ketoconazole and clarithromycin ([2]; observed, ketoconazole and clarithromycin DDI studies): ≤ 11%
AUC0-264 geometric least-squares mean ratio (90%CI) (test/reference) [2]: 1.11
Cmax geometric least-squares mean ratio (90%CI) (test/reference) [2]: 0.96
AUC0-264 geometric least-squares mean ratio (90%CI) (test/reference) ([2]; listed as Ixazomib): 1.11 (0.86‐1.43)
Cmax geometric least-squares mean ratio (90%CI) (test/reference) ([2]; listed as Ixazomib): 0.96 (0.67‐1.36)
Reduction of Cmax in the presence of rifampin [3]: 54%
Reduction of Cmax in the presence of rifampin ([3]; listed as Ixazomib): approximately 54%
Geometric mean AUC0-last, h·ng/mL (%CV) [3, 8]: 232 (50) h·ng/mL
Geometric mean Cmax, ng/mL (%CV) [3, 8]: 25.7 (50) ng/mL
Median Tmax, h (range) [3, 8]: 1.45 (0.5‐4.12) h
AUC0-last geometric least-squares mean ratio (90%CI) (test/reference) [3]: 0.26
Cmax geometric least-squares mean ratio (90%CI) (test/reference) [3]: 0.46
AUC0-last geometric least-squares mean ratio (90%CI) (test/reference) ([3]; listed as Ixazomib): 0.26 (0.18‐0.37)
Cmax geometric least-squares mean ratio (90%CI) (test/reference) ([3]; listed as Ixazomib): 0.46 (0.29‐0.73)
Any AE, n (%) [4, 9]: 16 (76) n (%)
Any drug-related AE, n (%) [4, 9]: 4 (19) n (%)
Any drug-related grade ≥3 AE, n (%) [4, 9]: 0 n (%)
Any drug-related serious AE, n (%) [4, 9]: 0 n (%)
Any grade ≥3 AE, n (%) [4, 9]: 2 (10) n (%)
Any serious AE, n (%) [4, 9]: 2 (10) n (%)
On-study deaths, n (%) [4, 9]: 0 n (%)
AE leading to discontinuation, n (%) ([4]; Ketoconazole arm (N = 29)): 8 (28) n (%)
Any AE, n (%) ([4]; Ketoconazole arm (N = 29)): 29 (100) n (%)
Any drug-related AE, n (%) ([4]; Ketoconazole arm (N = 29)): 27 (93) n (%)
Any drug-related grade ≥3 AE, n (%) ([4]; Ketoconazole arm (N = 29)): 10 (34) n (%)
Any drug-related serious AE, n (%) ([4]; Ketoconazole arm (N = 29)): 3 (10) n (%)
Any grade ≥3 AE, n (%) ([4]; Ketoconazole arm (N = 29)): 18 (62) n (%)
Any serious AE, n (%) ([4]; Ketoconazole arm (N = 29)): 12 (41) n (%)
On-study deaths, n (%) ([4]; Ketoconazole arm (N = 29)): 2 (7) n (%)
AE leading to discontinuation, n (%) [4, 10]: 4 (11) n (%)
Any AE, n (%) [4, 10]: 37 (97) n (%)
Any drug-related AE, n (%) [4, 10]: 32 (84) n (%)
Any drug-related grade ≥3 AE, n (%) [4, 10]: 7 (18) n (%)
Any drug-related serious AE, n (%) [4, 10]: 2 (5) n (%)
Any grade ≥3 AE, n (%) [4, 10]: 15 (39) n (%)
Any serious AE, n (%) [4, 10]: 7 (18) n (%)
On-study deaths, n (%) [4, 10]: 1 (3) n (%)
AE leading to discontinuation, n (%) ([4]; Total (N = 88)): 13 (15) n (%)
Any AE, n (%) ([4]; Total (N = 88)): 82 (93) n (%)
Any drug-related AE, n (%) ([4]; Total (N = 88)): 63 (72) n (%)
Any drug-related grade ≥3 AE, n (%) ([4]; Total (N = 88)): 17 (19) n (%)
Any drug-related serious AE, n (%) ([4]; Total (N = 88)): 5 (6) n (%)
Any grade ≥3 AE, n (%) ([4]; Total (N = 88)): 35 (40) n (%)
Any serious AE, n (%) ([4]; Total (N = 88)): 21 (24) n (%)
On-study deaths, n (%) ([4]; Total (N = 88)): 3 (3) n (%)
Patients with a study drug-related AE ([4]; across the 3 DDI study arms (N = 88)): 72%
Patients with study drug-related grade 3 AEs ([4]; across the 3 study arms, 17 patients): 19%
Patients with grade ≥3 AEs ([4]; across the 3 study arms, 35 patients): 40%
Study drug-related grade 3 AE: thrombocytopenia ([4]; across the 3 study arms, n = 2): 2%
Study drug-related grade 3 AE: vomiting ([4]; across the 3 study arms, n = 2): 2%
Study drug-related grade 3 AE: diarrhea ([4]; across the 3 study arms, n = 3): 3%
Study drug-related grade 3 AE: nausea ([4]; across the 3 study arms, n = 3): 3%
Study drug-related grade 3 AE: fatigue ([4]; across the 3 study arms, n = 9): 10%
Study drug-related AE: weight loss ([4]; across the 3 study arms, n = 10): 11%
Study drug-related AE: dehydration ([4]; across the 3 study arms, n = 12): 14%
Study drug-related AE: asthenia ([4]; across the 3 study arms, n = 13): 15%
Study drug-related AE: decreased appetite ([4]; across the 3 study arms, n = 15): 17%
Magnitude of the period effect (period 2 AUC vs period 1 AUC), pooled analysis (Period effect analysis): 1.91 fold
Estimated relative contribution of 3A4 to metabolism (CYP3A4): 42%
Estimated relative contribution of 1A2 to metabolism (CYP1A2): 26%
Estimated relative contribution of 2B6 to metabolism (CYP2B6): 16%
Estimated relative contribution of 2C8 to metabolism (CYP2C8): 6%
Estimated relative contribution of 2D6 to metabolism (CYP2D6): 5%
Estimated relative contribution of 2C19 to metabolism (CYP2C19): 5%
Estimated relative contribution of 2C9 to metabolism (CYP2C9): < 1%
Orally administered radiolabeled ixazomib recovered in urine [5]: 62%
Urinary excretion representing the parent drug [5]: < 3.5%
Effect on the QTc interval [6]: does not prolong the QTc interval
P-gp substrate status (P‐glycoprotein (P‐gp)): low‐affinity substrate

CO[C@H]1/C=C/O[C@@]2(C)Oc3c(C)c(O)c4c(O)c(c(/C=N/N5CCN(C)CC5)c(O)c4c3C2=O)NC(=O)/C(C)=C\C=C\[C@H](C)[C@H](O)[C@@H](C)[C@@H](O)[C@@H](C)[C@H](OC(C)=O)[C@@H]1C [rifampin]
Assumed increase in intestinal P-gp activity (intestinal P‐gp): 4 fold

COc1cc2nccc(Oc3ccc(NC(=O)Nc4cc(C)on4)c(Cl)c3)c2cc1OC [tivozanib]
Effect of steady-state ketoconazole on tivozanib AUC ([7]; ketoconazole 400 mg/day): did not alter
Decrease in tivozanib AUC with rifampin ([7]; rifampin 600 mg/day): 53%

Reference: PMC5811830 (Journal of Clinical Pharmacology, 2017)
